The assay deals with CAE9577. Briefly: Na current measurement in CAE9577 expressed oocytes. It counts as cell-based, human.

The text below walks through data of US20040234978A1, “Novel potential-dependent cation channel protein” (priority 2001, published 2004).

As to `NC1=N[C@H](O)[C@H]2[C@H]3O[C@]4(O)O[C@@H]([C@@H](O)[C@@]2(N1)[C@@H]4O)[C@]3(O)CO` [TTX, Tetrodotoxin], the “inhibition of the inward Na current” value is “partially inhibited”.
